Measured values: patent US9845297B2, “Antimicrobial compounds and methods of making and using the same” (Melinta Therapeutics, Inc., priority 2009, dated 2017)

Tested on: Eschericia coli strain ATCC25922
Experiment: standard microdilution assay to determine minimum inhibitory concentrations (MICs)
Assay type: cell-based
Details: Escherichia coli, ATCC25922, Eschericia coli strain ATCC25922, standard microdilution assay; read-out: E. coli ATCC25922 MIC
In short: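 Broth microdilution per CLSI protocols, typically 100 µL final volume, against E. coli ATCC25922. MIC values scored as +/− against a cutoff of 16 micrograms/ml.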

MIC | SMILES
< 16 µg/mL | CN(C(=O)C[C@@H](N)CCCNC(=N)N)C1CNC(NC(=O)c2ccc(NC(=O)[C@@](C)(N)CO)cc2)=NC1=O (stereo partly shown) [Compound 110]
> 16 µg/mL | NCCCNCc1ccc(-c2c[nH]c(NC(=O)Nc3cc(F)cc(C(F)(F)F)c3)nc2=O)cc1F [Compound 482]
> 16 µg/mL | N=C(N)NCCC[C@@H](CCCn1ccc(NC(=O)NS(=O)(=O)c2ccc(F)cc2)nc1=O)NCCCN [Compound 147]
> 16 µg/mL | N=C(N)NCC(NCCCN)c1ccc(-n2ccc(NC(N)=O)nc2=O)cc1 (stereo not shown) [Compound 156]
> 16 µg/mL | O=C(Nc1nc(=O)c(-c2ccc(CNCCCF)c(Cl)c2)c[nH]1)Nc1ccccc1OC(F)(F)F [Compound 271]
> 16 µg/mL | COc1ccc(C(=O)Nc2ccn(CCCC(CCCNC(=N)N)NCCCN)c(=O)n2)cc1 (stereo not shown) [Compound 177]
> 16 µg/mL | NCCCN(CCCN)Cc1ccc(-c2c[nH]c(Nc3nc4ccccc4o3)nc2=O)cc1F [Compound 363]
> 16 µg/mL | N=C(N)NCCCN(CCCN)Cc1ccc(-c2c[nH]c(NC(=O)NCCc3ccc(Cl)c(Cl)c3)nc2=O)cc1 [Compound 478]
> 16 µg/mL | O=C(Nc1nc(=O)c(-c2ccc(CNCC3CC3)cc2)c[nH]1)Nc1ccccc1OC(F)(F)F [Compound 274]
> 16 µg/mL | N=C(N)NCCCN1CCCC(c2c[nH]c(NC(=O)Nc3ccccc3OC(F)(F)F)nc2=O)CC1 (stereo not shown) [Compound 517]
> 16 µg/mL | NCCCNCc1ccc(-c2c[nH]c(NC(=O)NCCc3nc4cc(F)c(F)cc4[nH]3)nc2=O)cc1F [Compound 554]
> 16 µg/mL | N=C(N)NCCCN1CCCN(c2c[nH]c(NC(=O)Nc3ccccc3OC(F)(F)F)nc2=O)CC1 [Compound 491]
> 16 µg/mL | N=C(N)NCCC[C@@H](CCCn1ccc(NC(=O)Nc2ccc(F)c(F)c2)nc1=O)NCCCN [Compound 160]
> 16 µg/mL | NCCCNCc1ccc(-c2c[nH]c(NC(=O)NCCCc3cc(F)c(F)cc3F)nc2=O)cc1F [Compound 574]
> 16 µg/mL | NCCCCNC1CCN(c2c[nH]c(NC(=O)Nc3ccccc3OC(F)(F)F)nc2=O)CC1 [Compound 599]
< 16 µg/mL | NCCCNCc1ccc(-c2c[nH]c(Nc3nc4cc(F)c(F)cc4o3)nc2=O)c(F)c1 [Compound 467]
> 16 µg/mL | NCCCNCc1ccc(-c2c[nH]c(NC(=O)NCc3ccc(F)cc3)nc2=O)cc1F [Compound 255]
> 16 µg/mL | N=C(N)NCCC[C@H](N)CCCn1ccc(NC(N)=O)nc1=O [Compound 121]
> 16 µg/mL | N=C(N)NCCCN1CC2(CCN(c3c[nH]c(NC(=O)Nc4ccccc4OC(F)(F)F)nc3=O)CC2)C1 [Compound 484]
< 16 µg/mL | NCCCNCc1ccc(-c2c[nH]c(NC(=O)Nc3ccccc3OC(F)(F)F)nc2=O)c(F)c1 [Compound 432]
> 16 µg/mL | NCCCNCc1ccc(-c2c[nH]c(NC(=O)Nc3cc(Cl)cc(Cl)c3)nc2=O)cc1F [Compound 387]
> 16 µg/mL | NCCCNCc1ccc(-c2c[nH]c(NC(=O)Nc3ccccc3OCCNC(N)=O)nc2=O)cc1 [Compound 1295]
< 16 µg/mL | CN(CCCNCc1ccc(-c2c[nH]c(NC(=O)Nc3ccccc3OC(F)(F)F)nc2=O)cc1)C(=N)N [Compound 346]
> 16 µg/mL | CN(C(=O)C[C@H](CCCNC(=N)N)NC(=N)N)C1CNC(NC(N)=O)=NC1=O (stereo partly shown) [Compound 105]
> 16 µg/mL | NCCCN(Cc1ccc(-c2c[nH]c(NC(=O)Nc3ccccc3OC(F)(F)F)nc2=O)cc1)Cc1ncc[nH]1 [Compound 326]
> 16 µg/mL | Cn1ccnc1CN(CCCN)Cc1ccc(-c2c[nH]c(NC(=O)Nc3ccccc3OC(F)(F)F)nc2=O)cc1 [Compound 345]
< 16 µg/mL | NCCCN(CCCO)Cc1ccc(-c2c[nH]c(NC(=O)Nc3ccccc3OC(F)(F)F)nc2=O)cc1 [Compound 324]
> 16 µg/mL | N=C(N)NCCCC(CCCn1ccc(NC(=O)Nc2ccc(N3CCCCC3)cc2)nc1=O)NCCCN (stereo not shown) [Compound 186]

MIC | SMILES
> 16 µg/mL | NCCCNCc1ccc(-c2c[nH]c(NC(=O)Nc3ccccc3OCCCC(=O)O)nc2=O)cc1 [Compound 1297]
> 16 µg/mL | NCCCCn1ccc(N)nc1=O [Compound 129]
> 16 µg/mL | NCCCN1CCCN(c2c[nH]c(NC(=O)Nc3ccccc3OC(F)(F)F)nc2=O)CC1 [Compound 492]
> 16 µg/mL | NCCCCN1CCN(c2c[nH]c(NC(=O)Nc3cccc(Cl)c3F)nc2=O)CC1 [Compound 521]
> 16 µg/mL | COc1ccc([N+](=O)[O-])cc1NC(=O)Nc1nc(=O)c(-c2ccc(CNCCCN)c(F)c2)c[nH]1 [Compound 416]
< 16 µg/mL | NCCCN(CCCN)Cc1c(F)cc(-c2c[nH]c(NC(=O)Nc3ccccc3OC(F)(F)F)nc2=O)cc1F [Compound 294]
> 16 µg/mL | N=C(N)NCCCN(CCC1CC1)Cc1ccc(-c2c[nH]c(NC(=O)Nc3cc(F)c(F)cc3F)nc2=O)cc1 [Compound 680]
> 16 µg/mL | COc1nc(NC(=O)NCCc2nc3ccccc3o2)ncc1-c1ccc(CNCCCN)c(F)c1 [Compound 526]
> 16 µg/mL | NCCCN(CCCN)Cc1c(F)cc(-c2c[nH]c(NC(=O)Nc3cc(F)c(F)cc3F)nc2=O)cc1F [Compound 295]
> 16 µg/mL | NC[C@@H](N)c1cn(-c2ccc(-n3ccc(NC(N)=O)nc3=O)cc2)nn1 [Compound 150]
> 16 µg/mL | Cc1nc(-c2cccc(NC(=O)Nc3ccn(CCC[C@H](CCCNC(=N)N)NCCCN)c(=O)n3)c2)no1 [Compound 151]
> 16 µg/mL | NCCCNCc1ccc(-c2c[nH]c(NC(=O)NCCc3ccc(F)cc3)nc2=O)cc1F [Compound 435]
> 16 µg/mL | NCCCCN1CCN(c2c[nH]c(NC(=O)Nc3cc(F)c(F)cc3F)nc2=O)CC1 [Compound 520]
< 16 µg/mL | NC1CCN(Cc2ccc(-c3c[nH]c(NC(=O)Nc4ccccc4OC(F)(F)F)nc3=O)cc2)CC1 [Compound 251]
> 16 µg/mL | NCCCNCc1ccc(-c2c[nH]c(Nc3ccc(C(F)(F)F)cc3)nc2=O)cc1F [Compound 488]
> 16 µg/mL | NCCCN(CCCN)Cc1ccc(-n2ccc(NC(N)=O)nc2=O)cc1 [Compound 145]
> 16 µg/mL | NCCCCCN1CCC(c2c[nH]c(NC(=O)Nc3ccccc3OC(F)(F)F)nc2=O)CC1 [Compound 550]
> 16 µg/mL | N=C(N)NCCCCN[C@@H](CCCNC(=N)N)CCCn1ccc(NC(N)=O)nc1=O [Compound 134]
< 16 µg/mL | N=C(N)NCCCNCc1ccc(-c2c[nH]c(NC(=O)Nc3ccccc3OC(F)(F)F)nc2=O)cn1 [Compound 594]
< 16 µg/mL | NCCCN(Cc1ccc(-c2c[nH]c(NC(=O)Nc3ccccc3OC(F)(F)F)nc2=O)cc1)CC1CC1 [Compound 312]
> 16 µg/mL | NCCCN1CCC[C@H](NC(=O)Nc2nc(=O)c(-c3ccc(CN)cc3)c[nH]2)C1 [Compound 1303]
> 16 µg/mL | CN(C)c1ccc(NC(=O)Nc2nc(=O)c(-c3ccc(CN(CCCN)CCCN)cc3)c[nH]2)cc1 [Compound 188]
> 16 µg/mL | Cc1c(Cl)cc2nc(Nc3nc(=O)c(-c4ccc(CN(CCCN)CCCN)c(F)c4)c[nH]3)oc2c1Cl [Compound 472]
> 16 µg/mL | NCCCNCc1ccc(-n2cc(F)c(NC(N)=O)nc2=O)cc1 [Compound 138]
< 16 µg/mL | N=C(N)NCCCNCc1ccc(-c2c[nH]c(NC(=O)Nc3ccccc3OC(F)(F)F)nc2=O)cc1 [Compound 332]
< 16 µg/mL | NCCCNCc1ccc(-c2c[nH]c(Nc3nc4cc(F)c(F)cc4[nH]3)nc2=O)cc1 [Compound 438]
> 16 µg/mL | N=C(N)NCCCCN1CCC(c2c[nH]c(NC(=O)Nc3cc(F)c(F)cc3F)nc2=O)CC1 [Compound 546]
